Source: publication PMC12278645, “Design, synthesis, and antitumor activity of novel thioheterocyclic nucleoside derivatives by suppressing the c-MYC pathway” (Acta Pharmaceutica Sinica. B, 2025)
Where two headings read alike, the source gives them in different places.

Experiments:
[1] = test system: HCT116 cells; assay: Cell cycle assay (PI, flow cytometry); assay type: cell-based, human; conditions: 48 h
Protocol: Cells were seeded in 6-well plates (5 × 10^5 cells/well). The following day, defined concentrations of compound 33a or 36b were added to the wells for 48 h at 37 °C with 5% CO2. The cells were collected and fixed in ice-cold 70% alcohol overnight. Then the cells were stained in propidium iodide (PI) dye for 15 min in the dark and the cell DNA contents were analyzed via flow cytometry (Becton, Dickinson Company, New Jersey, USA).

[2] = biological target: c-MYC (Homo sapiens, UniProt P01106); assay: Drug affinity responsive target stability (DARTS) assay; assay type: binding; set-up: HCT116 cells were lysed with mammalian protein extraction reagent (M-PER); endogenous in cells; host or cells: HCT116; conditions: HCT116 lysate, pronase, 0-640 μmol/L
Protocol: HCT116 cells were lysed with mammalian protein extraction reagent (M-PER), centrifuged, and quantified by BCA protein assay. […] Proteolysis was performed by adding pronase solution at a ratio of 1:3200 for 30 min at room temperature and then stopped by adding SDS-PAGE sample loading buffer and boiling at 100 °C for 5 min. c-MYC protein was analyzed by Western blot.

[3] = Tissue distribution (LC-MS/MS); assay type: in vivo, BALB/c mice; conditions: for concentration at 4 h: BALB/c, mouse, intraperitoneal, 55 mg/kg intraperitoneally, after 4 h
[4] = test system: HCT116 cells; assay: RNA-sequencing analysis; assay type: cell-based, human; conditions: 48 h
Protocol: Total RNA was isolated from the HCT11 cells using Trizol (Invitrogen Life Technologies Corporation, Carlsbad, USA), cDNA synthesis followed by adaptor ligation and enrichment according to the instructions. The purified library products were evaluated using Illumina NovaSeq 6000 (paired-end 150 bp).

[5] = test system: HCT116 cells; assay: Autophagy (Western blot of P62, LC3, Beclin1; TEM; MDC staining); assay type: cell-based, human; conditions: 48 h
Protocol: (§1) Whole protein was extracted and separated by polyacrylamide gel electrophoresis (SDS-PAGE) and transferred onto nitrocellulose membranes. Membranes were blotted with CDK1, Cyclin B1, Caspase-3, BAX, BCL-2, PARP-1, γ-H2AX, P53, ATF4, CHOP, PERK, ATP6, LC3, Beclin1, P62, β-Catenin, c-MYC, MAX, UPP1, GAPDH, β-Actin, and β-Tubulin primary antibodies. Protein band analyses were performed with ImageJ software and protein expression levels were presented as a percentage difference compared to control.

[6] = test system: HCT116 cells; assay: Colony formation; assay type: cell-based, human; conditions: 48 h treatment, then 14 days
Protocol: HCT116 cells were seeded in 6-well plates (1.5 × 10^3 cells/well). Various concentrations of compound 33a or 36b were added to the wells for 48 h. The culture medium was changed every 72 h, at the end of 14 days, cells were fixed with methanol for 30 min and stained with 0.1% crystal violet staining solution for 30 min at room temperature, then washed three times in PBS and allowed to dry. Photographs were then taken.

[7] = test system: MCF-7 (human breast cancer); assay: CCK-8 anti-proliferation assay, MCF-7; assay type: cell-based; conditions: Homo sapiens, MCF7; CCK-8, 48 h, mean ± SD
Protocol: (§2) To evaluate their spectrum of anti-proliferative activity, further CCK-8 assays were carried out with the selected compounds (5a/5b, 8a/8b, 33a/33b, and 36a/36b) on MCF-7 (human breast cancer), A375 (human malignant melanoma), DU145 (human prostate cancer), and CT26 (mouse colon cancer) cell lines. The selected compounds had moderate to potent antitumor activity on the four cell lines, indicating their broad spectrum of antitumor activity (Table 5).
(§3) MCF-7, A375, and HeLa cells were cultured in DMEM, HCT116 cells were cultured in McCoy's 5A medium, and DU145 and CT26 were cultured in RPMI 1640 with 10% FBS, 1% penicillin-streptomycin solution (10,000 U/mL penicillin and 10,000 μg/mL streptomycin) at 37 °C under 5% CO2. The cells were seeded in 96-well plates (4 × 10^3 cells/well) overnight and then treated with various concentrations (1–50 μmol/L) of the compound. After 48 h, the cell viability was measured by CCK-8 assay. The absorbance of each well was measured using a microplate reader (Multiskan FC, Thermo Fisher Scientific, Massachusetts, USA) at 450 nm wavelength. Assays were performed in triplicate. Compound concentrations that inhibited cell growth by 50% (IC50) were calculated from the dose–response curves of each cell line. Data are mean ± SD values from three independent experiments.

[8] = test system: c-MYC signal path in HCT116 cells; assay: Western blot of c-MYC and downstream proteins; assay type: cell-based, human
Protocol: as §1

[9] = test system: HCT116 cells; assay: EdU assay; assay type: cell-based, human; conditions: 48 h
Protocol: HCT116 cells were seeded in 96-well plates (4 × 10^4 cells/well) overnight and then the cells were treated with various concentrations of compound 33a or 36b. After 48 h, the experiment operation process was performed according to the manufacturer's instructions. Images were obtained with a Leica DMIL fluorescence microscope (Leica Microsystems, Wetzlar, Germany).

[10] = test system: A375 (human malignant melanoma); assay: CCK-8 anti-proliferation assay, A375; assay type: cell-based; conditions: Homo sapiens, A-375; CCK-8, 48 h, mean ± SD
Protocol: as §2, §3

[11] = Metabolites in mice (LC-QTOF/MS); assay type: in vivo, BALB/c mice; conditions: 55 mg/kg, mixed plasma 0-24 h
Protocol: SPF BALB/c mice were adaptively fed for one week. In the control group, mice received an intravenous injection of an equal volume of solvent. In the Model group, mice received an intravenous injection of 55 mg/kg of 33a. Following administration at time points of 0, 0.25, 0.5, 1, 2, 4, 8, 12, and 24 h, mixed plasma samples were collected from mice in each group. Subsequently, blood metabolites were detected, identified, and analyzed utilizing LC-QTOF/MS technology.
The ionization mode is Electrospray Ionization in positive mode (ESI+), with an ion source voltage of 5 kV and a temperature set at 550 °C. The collision energy (CE) is 30 eV. The nebulizing gas, gas1 (nebulizer gas), and gas2 (auxiliary gas) are all nitrogen (N2) with their pressures set to 55 psi. The curtain gas (CUR) pressure is 35 psi. The parent ion scan range for the first-order mass spectrum is m/z […] to 1000, and the daughter ion scan range is m/z 50 to 1000. Dynamic Background Subtraction (DBS) is activated. The software used for data acquisition is Analyst® TF 1.8 software.

Chain of c-MYC (P01106 whole entry): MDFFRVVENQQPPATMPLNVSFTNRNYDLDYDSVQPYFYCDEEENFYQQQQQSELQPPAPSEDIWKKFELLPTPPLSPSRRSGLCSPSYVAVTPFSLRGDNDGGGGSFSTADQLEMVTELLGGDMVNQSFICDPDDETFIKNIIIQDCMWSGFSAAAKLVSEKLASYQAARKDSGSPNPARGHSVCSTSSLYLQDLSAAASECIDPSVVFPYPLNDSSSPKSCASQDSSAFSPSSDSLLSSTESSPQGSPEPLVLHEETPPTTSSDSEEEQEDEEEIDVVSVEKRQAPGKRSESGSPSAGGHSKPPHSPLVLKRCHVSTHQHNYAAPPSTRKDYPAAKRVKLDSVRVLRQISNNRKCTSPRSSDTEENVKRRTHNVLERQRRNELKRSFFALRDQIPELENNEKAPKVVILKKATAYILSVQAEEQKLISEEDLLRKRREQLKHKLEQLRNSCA

Row | SMILES | G2/M cells [1] | stability of c-MYC against proteolysis [2] | blood-brain barrier passage ([3]; 55 mg/kg, 4 h) | concentration at 4 h ([3]; brain, read-out: concentration in brain) | concentration at 4 h ([3]; heart, read-out: concentration in heart) | concentration at 4 h ([3]; kidney, read-out: concentration in kidney) | concentration at 4 h ([3]; liver, read-out: concentration in liver) | concentration at 4 h ([3]; lung, read-out: concentration in lung) | concentration at 4 h ([3]; spleen, read-out: concentration in spleen) | genes significantly downregulated ([4]; 0.8 μmol/L) | genes significantly upregulated ([4]; 0.8 μmol/Lol/L) | autophagy [5] | colony formation [6] | IC50 [7] | protein levels of c-MYC, β-Catenin, MAX, P21 [8] | EdU-positive cells [9] | IC50 [10] | metabolic pathways [11]
1 | CCOC(=O)[C@]1(n2cnc3c(N4CCCCC4)nc(F)nc32)CSC[C@H]1O (racemic) [33a] | increased the percentage of G2/M cells in a dose-dependent manner | increase the stability of c-MYC in the process of protease hydrolysis | can readily cross the blood‒brain barrier | 87900 ± 21500 ng/g | 16900 ± 2990 ng/g | 70400 ± 5140 ng/g | 12500 ± 2130 ng/g | 38500 ± 4430 ng/g | 5490 ± 2450 ng/g | 221 | 265 | could inhibit autophagy in HCT116 | reduce the colony formation number in a dose-dependent manner | 8.45 ± 1.03 µM | c-MYC, β-Catenin, and MAX were significantly decreased, whereas the expression of p21 increased significantly in a dose-dependent manner | significantly fewer EdU-positive cells than in the control group | 2.34 ± 0.12 µM | hydrolysis of carboxylic acid ester and glucuronidation
2 | CCCSc1nc(F)nc2c1ncn2[C@@]1(C(=O)OCC)CSC[C@@H]1O (relative stereo) [36b] | increased the percentage of G2/M cells in a dose-dependent manner | increase the stability of c-MYC in the process of protease hydrolysis | – | – | – | – | – | – | – | – | – | could up-regulate the protein levels of P62 but showed no obvious effect on LC3-II and Beclin1 | reduce the colony formation number in a dose-dependent manner | 14.1 ± 1.24 µM | c-MYC, β-Catenin, and MAX were significantly decreased, whereas the expression of p21 increased significantly in a dose-dependent manner | significantly fewer EdU-positive cells than in the control group | 1.14 ± 0.17 µM | –
